Measured values reported in patent US12227500B2, “Substituted pyrrolo[2,3-b]pyridines for suppressing toxic endoplasmic reticulum stress” (THE TRUSTEES OF COLUMBIA UNIVERSITY IN THE CITY OF NEW YORK, priority 2018, dated 2025).

Legend:
Assay in all cases: Radiolabeled ATP kinase assay, panel of 371 kinases (Table S6)
Format in all cases: biochemical
[1] = biological target: T1, panel of 371 human kinases (Homo sapiens, UniProt O15264); details: P38d/MAPK13; 0.1 μM; 10 μM ATP; read-out: % Enzyme Activity (relative to DMSO controls)
T1 construct: purchased Reaction Biology Corp
Text: (§1) ; FIG. 38C). […]. Further targeted analyses, such as genetic knock-down or knock-out, may be warranted to parse the role of these additional kinases in our model of neurodegeneration.

[2] = biological target: T2, panel of 371 human kinases (Homo sapiens, UniProt O43353); details: RIPK2; 0.1 μM; 10 μM ATP; read-out: % Enzyme Activity (relative to DMSO controls)
T2 construct: purchased Reaction Biology Corp
Text: as §1

[3] = biological target: T3, panel of 371 human kinases (Homo sapiens, UniProt O75676); details: MSK2/RPS6KA4; 0.1 μM; 10 μM ATP; read-out: % Enzyme Activity (relative to DMSO controls)
T3 construct: purchased Reaction Biology Corp
Text: as §1

[4] = biological target: T4, panel of 371 human kinases (Homo sapiens, UniProt P07948); details: LYN; 0.1 μM; 10 μM ATP; read-out: % Enzyme Activity (relative to DMSO controls)
T4 construct: purchased Reaction Biology Corp
Text: as §1

[5] = biological target: T5, panel of 371 human kinases (Homo sapiens, UniProt P29317); details: EPHA2; 0.1 μM; 10 μM ATP; read-out: % Enzyme Activity (relative to DMSO controls)
T5 construct: purchased Reaction Biology Corp
Text: as §1

[6] = biological target: T6, panel of 371 human kinases (Homo sapiens, UniProt P29376); details: TYK1/LTK; 0.1 μM; 10 μM ATP; read-out: % Enzyme Activity (relative to DMSO controls)
T6 construct: purchased Reaction Biology Corp
Text: as §1

[7] = biological target: T7, panel of 371 human kinases (Homo sapiens, UniProt P29597); details: TYK2; 0.1 μM; 10 μM ATP; read-out: % Enzyme Activity (relative to DMSO controls)
T7 construct: purchased Reaction Biology Corp
Text: as §1

[8] = biological target: T8, panel of 371 human kinases (Homo sapiens, UniProt P34947); details: GRK5; 0.1 μM; 10 μM ATP; read-out: % Enzyme Activity (relative to DMSO controls)
T8 construct: purchased Reaction Biology Corp
Text: as §1

[9] = biological target: T9, panel of 371 human kinases (Homo sapiens, UniProt P49840); details: GSK3a; 0.1 μM; 10 μM ATP; read-out: % Enzyme Activity (relative to DMSO controls)
T9 construct: purchased Reaction Biology Corp
Text: as §1

[10] = biological target: T10, panel of 371 human kinases (Homo sapiens, UniProt P52564); details: MKK6; 0.1 μM; 10 μM ATP; read-out: % Enzyme Activity (relative to DMSO controls)
T10 construct: purchased Reaction Biology Corp
Text: as §1

[11] = biological target: T11, panel of 371 human kinases (Homo sapiens, UniProt P57078); details: RIPK4; 0.1 μM; 10 μM ATP; read-out: % Enzyme Activity (relative to DMSO controls)
T11 construct: purchased Reaction Biology Corp
Text: as §1

[12] = biological target: T12, panel of 371 human kinases (Homo sapiens, UniProt Q13555); details: CAMK2g; 0.1 μM; 10 μM ATP; read-out: % Enzyme Activity (relative to DMSO controls)
T12 construct: purchased Reaction Biology Corp
Text: as §1

[13] = biological target: T13, panel of 371 human kinases (Homo sapiens, UniProt Q14012); details: CAMK1a; 0.1 μM; 10 μM ATP; read-out: % Enzyme Activity (relative to DMSO controls)
T13 construct: purchased Reaction Biology Corp
Text: as §1

[14] = biological target: T14, panel of 371 human kinases (Homo sapiens, UniProt Q16566); details: CAMK4; 0.1 μM; 10 μM ATP; read-out: % Enzyme Activity (relative to DMSO controls)
T14 construct: purchased Reaction Biology Corp
Text: as §1

[15] = biological target: T15, panel of 371 human kinases (Homo sapiens, UniProt Q52WX2); details: SBK1; 0.1 μM; 10 μM ATP; read-out: % Enzyme Activity (relative to DMSO controls)
T15 construct: purchased Reaction Biology Corp
Text: as §1

[16] = biological target: T16, panel of 371 human kinases (Homo sapiens, UniProt Q5VT25); details: MRCKa/CDC42BPA; 0.1 μM; 10 μM ATP; read-out: % Enzyme Activity (relative to DMSO controls)
T16 construct: purchased Reaction Biology Corp
Text: as §1

[17] = biological target: T17, panel of 371 human kinases (Homo sapiens, UniProt Q7L7X3); details: TAOK1; 0.1 μM; 10 μM ATP; read-out: % Enzyme Activity (relative to DMSO controls)
T17 construct: purchased Reaction Biology Corp
Text: as §1

[18] = biological target: T18, panel of 371 human kinases (Homo sapiens, UniProt Q86YV6); details: MYLK4; 0.1 μM; 10 μM ATP; read-out: % Enzyme Activity (relative to DMSO controls)
T18 construct: purchased Reaction Biology Corp
Text: as §1

[19] = biological target: T19, panel of 371 human kinases (Homo sapiens, UniProt Q8N5S9); details: CAMKK1; 0.1 μM; 10 μM ATP; read-out: % Enzyme Activity (relative to DMSO controls)
T19 construct: purchased Reaction Biology Corp
Text: as §1

[20] = biological target: T20, panel of 371 human kinases (Homo sapiens, UniProt Q8TD19); details: NEK9; 0.1 μM; 10 μM ATP; read-out: % Enzyme Activity (relative to DMSO controls)
T20 construct: purchased Reaction Biology Corp
Text: as §1

[21] = biological target: T21, panel of 371 human kinases (Homo sapiens, UniProt Q96BR1); details: SGK3/SGKL; 0.1 μM; 10 μM ATP; read-out: % Enzyme Activity (relative to DMSO controls)
T21 construct: purchased Reaction Biology Corp
Text: as §1

[22] = biological target: T22, panel of 371 human kinases (Homo sapiens, UniProt Q96PY6); details: NEK1; 0.1 μM; 10 μM ATP; read-out: % Enzyme Activity (relative to DMSO controls)
T22 construct: purchased Reaction Biology Corp
Text: as §1

[23] = biological target: T23, panel of 371 human kinases (Homo sapiens, UniProt Q96SB4); details: SRPK1; 0.1 μM; 10 μM ATP; read-out: % Enzyme Activity (relative to DMSO controls)
T23 construct: purchased Reaction Biology Corp
Text: as §1

[24] = biological target: T24, panel of 371 human kinases (Homo sapiens, UniProt Q9UL54); details: TAOK2/TAO1; 0.1 μM; 10 μM ATP; read-out: % Enzyme Activity (relative to DMSO controls)
T24 construct: purchased Reaction Biology Corp
Text: as §1

T16 sequence (Q5VT25 whole entry): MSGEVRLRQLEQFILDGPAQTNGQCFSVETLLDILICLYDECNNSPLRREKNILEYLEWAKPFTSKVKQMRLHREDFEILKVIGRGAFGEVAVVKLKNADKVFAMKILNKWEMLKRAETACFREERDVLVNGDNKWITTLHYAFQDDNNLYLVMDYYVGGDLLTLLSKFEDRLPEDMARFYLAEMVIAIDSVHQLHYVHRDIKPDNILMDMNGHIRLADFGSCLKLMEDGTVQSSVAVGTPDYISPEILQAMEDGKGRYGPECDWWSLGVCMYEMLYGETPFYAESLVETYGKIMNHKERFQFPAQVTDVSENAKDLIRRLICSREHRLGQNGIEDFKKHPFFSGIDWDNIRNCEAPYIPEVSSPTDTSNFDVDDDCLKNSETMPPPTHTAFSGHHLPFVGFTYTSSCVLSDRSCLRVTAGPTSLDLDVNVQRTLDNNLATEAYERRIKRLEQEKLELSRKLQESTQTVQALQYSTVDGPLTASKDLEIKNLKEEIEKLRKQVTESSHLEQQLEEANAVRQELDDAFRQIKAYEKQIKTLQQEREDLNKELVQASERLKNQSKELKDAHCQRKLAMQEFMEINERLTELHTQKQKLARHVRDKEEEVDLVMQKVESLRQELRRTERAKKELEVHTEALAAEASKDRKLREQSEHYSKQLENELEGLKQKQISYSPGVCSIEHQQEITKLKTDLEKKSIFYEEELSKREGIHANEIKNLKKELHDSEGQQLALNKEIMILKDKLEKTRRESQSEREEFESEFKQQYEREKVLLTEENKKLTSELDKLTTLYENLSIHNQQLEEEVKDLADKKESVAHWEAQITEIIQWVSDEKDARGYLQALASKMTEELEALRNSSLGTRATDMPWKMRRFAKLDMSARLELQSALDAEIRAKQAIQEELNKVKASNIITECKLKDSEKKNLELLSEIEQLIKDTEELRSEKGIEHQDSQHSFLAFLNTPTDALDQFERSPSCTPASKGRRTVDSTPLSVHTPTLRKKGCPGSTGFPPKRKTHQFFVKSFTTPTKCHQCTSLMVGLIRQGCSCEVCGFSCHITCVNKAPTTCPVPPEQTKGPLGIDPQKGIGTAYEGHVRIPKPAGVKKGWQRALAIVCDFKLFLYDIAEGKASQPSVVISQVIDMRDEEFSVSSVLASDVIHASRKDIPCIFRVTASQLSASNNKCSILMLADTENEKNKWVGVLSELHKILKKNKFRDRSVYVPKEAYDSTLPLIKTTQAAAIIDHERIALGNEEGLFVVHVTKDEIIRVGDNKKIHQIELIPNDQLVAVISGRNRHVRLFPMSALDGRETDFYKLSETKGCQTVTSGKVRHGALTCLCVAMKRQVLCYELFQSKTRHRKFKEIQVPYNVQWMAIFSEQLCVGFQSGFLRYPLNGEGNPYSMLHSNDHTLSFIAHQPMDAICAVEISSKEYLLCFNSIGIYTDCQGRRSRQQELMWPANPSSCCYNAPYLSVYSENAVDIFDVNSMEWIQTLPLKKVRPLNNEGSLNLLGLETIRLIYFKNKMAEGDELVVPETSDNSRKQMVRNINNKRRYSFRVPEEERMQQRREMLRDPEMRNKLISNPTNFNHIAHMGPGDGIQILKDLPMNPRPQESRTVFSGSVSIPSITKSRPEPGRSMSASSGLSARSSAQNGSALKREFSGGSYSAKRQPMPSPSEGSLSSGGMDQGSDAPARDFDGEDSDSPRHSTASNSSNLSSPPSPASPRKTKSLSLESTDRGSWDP
T7 sequence (P29597 whole entry): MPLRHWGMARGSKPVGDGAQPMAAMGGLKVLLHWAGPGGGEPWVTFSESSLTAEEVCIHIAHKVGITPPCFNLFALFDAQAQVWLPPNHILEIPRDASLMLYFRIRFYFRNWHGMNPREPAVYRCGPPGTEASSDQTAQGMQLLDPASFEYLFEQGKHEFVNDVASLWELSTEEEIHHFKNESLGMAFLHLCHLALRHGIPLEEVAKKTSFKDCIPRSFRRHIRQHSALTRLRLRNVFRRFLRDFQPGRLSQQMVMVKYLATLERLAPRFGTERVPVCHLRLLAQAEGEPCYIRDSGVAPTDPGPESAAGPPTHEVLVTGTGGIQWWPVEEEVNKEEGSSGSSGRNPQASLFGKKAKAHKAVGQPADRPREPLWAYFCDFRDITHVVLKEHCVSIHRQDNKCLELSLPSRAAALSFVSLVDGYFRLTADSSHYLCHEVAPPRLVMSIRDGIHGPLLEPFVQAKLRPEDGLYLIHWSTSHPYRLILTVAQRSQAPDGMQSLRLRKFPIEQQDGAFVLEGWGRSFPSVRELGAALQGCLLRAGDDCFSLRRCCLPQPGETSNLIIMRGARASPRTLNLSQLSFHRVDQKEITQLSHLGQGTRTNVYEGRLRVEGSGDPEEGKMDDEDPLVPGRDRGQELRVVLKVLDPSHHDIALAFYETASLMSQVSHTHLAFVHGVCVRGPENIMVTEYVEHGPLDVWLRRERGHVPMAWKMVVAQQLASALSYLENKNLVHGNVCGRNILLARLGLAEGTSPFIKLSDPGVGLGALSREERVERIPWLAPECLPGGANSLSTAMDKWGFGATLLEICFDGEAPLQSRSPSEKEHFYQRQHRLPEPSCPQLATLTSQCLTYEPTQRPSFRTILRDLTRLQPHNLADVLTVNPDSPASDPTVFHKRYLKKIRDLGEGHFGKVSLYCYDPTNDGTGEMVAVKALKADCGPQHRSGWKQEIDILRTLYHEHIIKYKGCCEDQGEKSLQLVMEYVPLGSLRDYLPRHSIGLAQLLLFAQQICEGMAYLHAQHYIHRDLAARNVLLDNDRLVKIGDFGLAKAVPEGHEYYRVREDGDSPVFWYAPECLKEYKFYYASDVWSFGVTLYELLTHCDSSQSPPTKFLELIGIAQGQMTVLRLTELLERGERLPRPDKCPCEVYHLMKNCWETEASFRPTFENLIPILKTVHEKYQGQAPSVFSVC
T6 sequence (P29376 17-864): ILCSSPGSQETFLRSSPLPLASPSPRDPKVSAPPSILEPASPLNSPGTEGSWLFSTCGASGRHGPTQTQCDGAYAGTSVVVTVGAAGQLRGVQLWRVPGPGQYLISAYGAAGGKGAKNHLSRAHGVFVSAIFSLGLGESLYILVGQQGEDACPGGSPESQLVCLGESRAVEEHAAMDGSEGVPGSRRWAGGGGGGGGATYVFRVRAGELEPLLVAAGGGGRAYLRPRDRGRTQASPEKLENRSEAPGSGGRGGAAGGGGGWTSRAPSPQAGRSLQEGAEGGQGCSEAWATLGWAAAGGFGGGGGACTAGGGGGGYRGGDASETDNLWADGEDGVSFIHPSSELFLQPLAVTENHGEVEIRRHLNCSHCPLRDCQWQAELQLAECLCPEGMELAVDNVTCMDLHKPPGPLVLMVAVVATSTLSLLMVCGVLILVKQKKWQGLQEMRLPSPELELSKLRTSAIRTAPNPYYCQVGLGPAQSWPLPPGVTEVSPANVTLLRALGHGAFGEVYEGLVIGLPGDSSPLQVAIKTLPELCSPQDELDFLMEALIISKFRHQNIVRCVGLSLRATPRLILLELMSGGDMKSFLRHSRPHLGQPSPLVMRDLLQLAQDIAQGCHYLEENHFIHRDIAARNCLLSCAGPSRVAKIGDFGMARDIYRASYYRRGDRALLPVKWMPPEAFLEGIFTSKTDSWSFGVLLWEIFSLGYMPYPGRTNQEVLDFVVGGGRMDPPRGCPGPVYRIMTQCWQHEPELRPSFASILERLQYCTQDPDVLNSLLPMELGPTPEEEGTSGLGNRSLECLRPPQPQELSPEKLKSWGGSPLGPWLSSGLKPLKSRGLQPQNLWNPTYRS
T10 sequence (P52564 whole entry): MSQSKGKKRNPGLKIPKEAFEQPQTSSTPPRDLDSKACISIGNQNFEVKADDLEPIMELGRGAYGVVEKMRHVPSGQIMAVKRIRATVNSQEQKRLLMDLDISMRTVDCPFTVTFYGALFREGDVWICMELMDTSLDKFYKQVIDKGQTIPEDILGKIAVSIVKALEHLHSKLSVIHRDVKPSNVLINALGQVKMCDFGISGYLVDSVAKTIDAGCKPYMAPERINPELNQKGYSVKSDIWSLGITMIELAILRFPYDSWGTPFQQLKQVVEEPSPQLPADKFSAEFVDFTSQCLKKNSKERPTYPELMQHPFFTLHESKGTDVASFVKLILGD
T12 sequence (Q13555 whole entry): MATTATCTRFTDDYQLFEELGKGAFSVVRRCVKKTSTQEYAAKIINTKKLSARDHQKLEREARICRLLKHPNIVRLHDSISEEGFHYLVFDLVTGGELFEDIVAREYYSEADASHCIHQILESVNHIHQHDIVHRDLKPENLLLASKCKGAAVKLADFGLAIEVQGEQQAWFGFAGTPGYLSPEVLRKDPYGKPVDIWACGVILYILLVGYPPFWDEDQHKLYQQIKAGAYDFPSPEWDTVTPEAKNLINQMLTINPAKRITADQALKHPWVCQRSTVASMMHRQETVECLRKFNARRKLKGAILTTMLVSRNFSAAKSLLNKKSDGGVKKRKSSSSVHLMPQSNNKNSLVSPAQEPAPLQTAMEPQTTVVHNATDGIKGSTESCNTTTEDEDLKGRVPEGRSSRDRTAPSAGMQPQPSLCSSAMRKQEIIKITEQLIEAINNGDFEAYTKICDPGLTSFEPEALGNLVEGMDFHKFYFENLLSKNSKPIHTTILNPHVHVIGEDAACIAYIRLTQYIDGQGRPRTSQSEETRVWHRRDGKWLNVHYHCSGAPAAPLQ
T18 sequence (Q86YV6 whole entry): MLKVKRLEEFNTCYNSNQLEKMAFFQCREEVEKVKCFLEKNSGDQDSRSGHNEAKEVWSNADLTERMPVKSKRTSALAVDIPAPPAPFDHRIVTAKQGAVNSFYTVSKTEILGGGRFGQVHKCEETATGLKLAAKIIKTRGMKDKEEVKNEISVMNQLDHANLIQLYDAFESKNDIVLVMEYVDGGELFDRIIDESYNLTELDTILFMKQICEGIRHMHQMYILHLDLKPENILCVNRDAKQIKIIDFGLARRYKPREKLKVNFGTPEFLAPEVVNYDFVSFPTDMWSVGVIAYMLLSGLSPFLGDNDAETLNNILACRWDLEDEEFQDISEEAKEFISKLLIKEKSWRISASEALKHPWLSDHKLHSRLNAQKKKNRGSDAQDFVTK

SMILES: CN1CCN(Cc2ccc(-c3cnc4[nH]cc(-c5ccc6[nH]ccc6c5)c4c3)cc2)CC1 [Compound 1, 3-(1H-Indol-5-yl)-5-(4-((4-methylpiperazin-1-yl)methyl)phenyl)-1H-pyrrolo[2,3-b]pyridine, reference compound]
- remaining activity at 0.1 µM [1]: 132%
- remaining activity at 0.1 µM [2]: 78.5%
- remaining activity at 0.1 µM [3]: 114%
- remaining activity at 0.1 µM [4]: 90.3%
- remaining activity at 0.1 µM [5]: 93.6%
- remaining activity at 0.1 µM [6]: 105%
- remaining activity at 0.1 µM [7]: 90.8%
- remaining activity at 0.1 µM [8]: 98.2%
- remaining activity at 0.1 µM [9]: 84.8%
- remaining activity at 0.1 µM [10]: 116%
- remaining activity at 0.1 µM [11]: 98.3%
- remaining activity at 0.1 µM [12]: 110%
- remaining activity at 0.1 µM [13]: 100%
- remaining activity at 0.1 µM [14]: 95.1%
- remaining activity at 0.1 µM [15]: 99%
- remaining activity at 0.1 µM [16]: 105%
- remaining activity at 0.1 µM [17]: 78.3%
- remaining activity at 0.1 µM [18]: 53.6%
- remaining activity at 0.1 µM [19]: 103%
- remaining activity at 0.1 µM [20]: 101%
- remaining activity at 0.1 µM [21]: 74.3%
- remaining activity at 0.1 µM [22]: 80.1%
- remaining activity at 0.1 µM [23]: 104%
- remaining activity at 0.1 µM [24]: 104%

SMILES: OCCN1CCN(Cc2ccc(-c3cnc4[nH]cc(-c5cccc(Cl)c5)c4c3)cc2)CC1 [Compound 12k, 2-(4-(4-(3-(3-Chlorophenyl)-1H-pyrrolo[2,3-b]pyridin-5-yl)benzyl)piperazin-1-yl)ethan-1-ol]
- remaining activity at 0.1 µM [1]: 103%
- remaining activity at 0.1 µM [2]: 92.3%
- remaining activity at 0.1 µM [3]: 110%
- remaining activity at 0.1 µM [4]: 99.3%
- remaining activity at 0.1 µM [5]: 92.3%
- remaining activity at 0.1 µM [6]: 117%
- remaining activity at 0.1 µM [7]: 92.9%
- remaining activity at 0.1 µM [8]: 93.3%
- remaining activity at 0.1 µM [9]: 91.6%
- remaining activity at 0.1 µM [10]: 97.9%
- remaining activity at 0.1 µM [11]: 98%
- remaining activity at 0.1 µM [12]: 110%
- remaining activity at 0.1 µM [13]: 121%
- remaining activity at 0.1 µM [14]: 100%
- remaining activity at 0.1 µM [15]: 98.7%
- remaining activity at 0.1 µM [16]: 96.1%
- remaining activity at 0.1 µM [17]: 59.8%
- remaining activity at 0.1 µM [18]: 37.2%
- remaining activity at 0.1 µM [19]: 102%
- remaining activity at 0.1 µM [20]: 95.1%
- remaining activity at 0.1 µM [21]: 88.2%
- remaining activity at 0.1 µM [22]: 76.5%
- remaining activity at 0.1 µM [23]: 100%
- remaining activity at 0.1 µM [24]: 103%
